This is an account of results in patent publication US8741836B2, “Polypeptides” (Novo Nordisk A/S, priority 2011, dated 2014).

Starred links: 1 amine or outer side, 2 acyl side, 3 side chain; linkers in the order of their positions; H or OH if unused. Positions of bridges follow the written chain, without caps; N, C: chain ends. Residues, ends and D or L forms follow the SMILES beside them. *: point of attachment. C20 diacid = O=C(O)CCCCCCCCCCCCCCCCCCC(=O)*; γGlu = O=C(O)[C@H](CCC(=O)[*:2])N[*:1]

The test system of this assay is ad libitum fed rat. Nature of the assay: Assay (I) efficacy testing on appetite (food intake) using an ad libitum fed rat model. In kind it is in vivo, Sprague Dawley (SD) rats. The gist of the method:
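Ad libitum fed Sprague Dawley rats, 200-250 g, singly housed on reversed light cycle, got one ip, po or sc dose of 0.01-3 mg/kg just before lights off; groups of 5-8 with vehicle control. Food intake recorded hourly for 7 h, then at 24 h and sometimes 48 h; Grubbs outliers excluded.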

Consider `CC[C@H](C)[C@H](NC(=O)[C@@H]1CCCN1C(=O)CNC(=O)[C@H](Cc1ccccc1)NC(=O)[C@H](CC(N)=O)NC(=O)[C@H](CC(N)=O)NC(=O)[C@H](CO)NC(=O)[C@H](CO)NC(=O)[C@H](Cc1c[nH]cn1)NC(=O)[C@H](Cc1c[nH]cn1)NC(=O)[C@H](CC(C)C)NC(=O)[C@H](Cc1ccccc1)NC(=O)[C@H](CCC(=O)O)NC(=O)[C@H](C)NC(=O)[C@H](CC(C)C)NC(=O)[C@H](CCCNC(=N)N)NC(=O)[C@H](CCC(N)=O)NC(=O)[C@@H](NC(=O)[C@H](C)NC(=O)[C@@H]1CSSC[C@H](NC(=O)CC[C@H](NC(=O)CCCCCCCCCCCCCCCCCCC(=O)O)C(=O)O)C(=O)N[C@@H](CC(N)=O)C(=O)N[C@@H]([C@@H](C)O)C(=O)N[C@@H](C)C(=O)N[C@@H]([C@@H](C)O)C(=O)N1)[C@@H](C)O)C(=O)N[C@@H](CC(C)C)C(=O)N1CCC[C@H]1C(=O)N1CCC[C@H]1C(=O)N[C@H](C(=O)N[C@@H](CC(N)=O)C(=O)N[C@H](C(=O)NCC(=O)N[C@@H](CO)C(=O)N[C@@H](CC(N)=O)C(=O)N[C@H](C(=O)N[C@@H](Cc1ccc(O)cc1)C(N)=O)[C@@H](C)O)C(C)C)[C@@H](C)O` [Example 28, N-alpha-[(S)-4-Carboxy-4-(19-carboxynonadecanoylamino)butyryl]-[des1,Glu14,His17]-pramlintide] ({C20 diacid-γGlu}-CNTATCATQRLAEFLHHSSNNFGPILPPTNVGSNTY-NH2; disulfide 1-6), for which the “Food intake reduction 0-24 h 3 nmol/kg (%)” value (3 nmol/kg, 0-24 h) amounted to 39%. In addition, the “Food intake reduction 24-48 h 3 nmol/kg (%)” value (3 nmol/kg, 24-48 h) amounted to 36%.
Turning to `CC[C@H](C)[C@H](NC(=O)[C@@H]1CCCN1C(=O)CNC(=O)[C@H](Cc1ccccc1)NC(=O)[C@H](CC(N)=O)NC(=O)[C@H](CC(N)=O)NC(=O)[C@H](CO)NC(=O)[C@H](CO)NC(=O)[C@H](Cc1c[nH]cn1)NC(=O)[C@H](Cc1c[nH]cn1)NC(=O)[C@H](CC(C)C)NC(=O)[C@H](Cc1ccccc1)NC(=O)[C@H](CCC(=O)O)NC(=O)[C@H](C)NC(=O)[C@H](CC(C)C)NC(=O)[C@H](CCCNC(=N)N)NC(=O)[C@H](CCC(N)=O)NC(=O)[C@@H](NC(=O)[C@H](C)NC(=O)[C@@H]1CSSC[C@H](NC(=O)[C@H](Cc2c[nH]cn2)NC(=O)[C@H](Cc2c[nH]cn2)NC(=O)[C@H](Cc2c[nH]cn2)NC(=O)CC[C@H](NC(=O)CCCCCCCCCCCCCCCCCCC(=O)O)C(=O)O)C(=O)N[C@@H](CC(N)=O)C(=O)N[C@@H]([C@@H](C)O)C(=O)N[C@@H](C)C(=O)N[C@@H]([C@@H](C)O)C(=O)N1)[C@@H](C)O)C(=O)N[C@@H](CC(C)C)C(=O)N1CCC[C@H]1C(=O)N1CCC[C@H]1C(=O)N[C@H](C(=O)N[C@@H](CC(N)=O)C(=O)N[C@H](C(=O)NCC(=O)N[C@@H](CO)C(=O)N[C@@H](CC(N)=O)C(=O)N[C@H](C(=O)N[C@@H](Cc1ccc(O)cc1)C(N)=O)[C@@H](C)O)C(C)C)[C@@H](C)O` [Example 11, N-alpha-[(S)-4-Carboxy-4-(19-carboxynonadecanoylamino)butyryl]-His-His-[His1,Glu14,His17]-pramlintide] ({C20 diacid-γGlu}-HHHCNTATCATQRLAEFLHHSSNNFGPILPPTNVGSNTY-NH2; disulfide 4-9 (inferred); C-terminus assumed), the “Food intake reduction 0-24 h 30 nmol/kg (%)” value (30 nmol/kg, 0-24 h) is 87%. Further, the “Food intake reduction 24-48 h 30 nmol/kg (%)” value (30 nmol/kg, 24-48 h) was 92%.
